Test results taken from patent US5925645A, “2-aryl-substituted pyridines” (Bayer Aktiengesellschaft, priority 1996, dated 1999).

Tests used:
[1] = Oral activity in hamsters: HDL cholesterol and triglycerides; type: in vivo, Syrian golden hamsters
Protocol: (§1) Syrian golden hamsters from in-house breeding are anaesthetized after fasting for 24 hours (0.80 mg/kg of atropine, 0.80 mg/kg of Ketavet® s.c. 30' later 50 mg/kg of Nembutal i.p.). The jugular vein is then exposed and cannulated. The test substance is dissolved in a suitable solvent (as a rule Adalat placebo solution: 60 g of glycerol, 100 ml of H2 O, PEG-400 to 1000 ml) and administered to the animals via a PE catheter inserted into the jugular vein. The control animals receive the same volume of solvent without test substance. The vein is then tied off and the wound is closed. After various times--up to 24 hours after administration of the test substance--blood (about 250 μl) is removed from the animals by puncture of the retro-orbital venous plexus. Clotting is concluded by incubation at 4° C. overnight, then centrifugation is carried out at 6000 g for 10 minutes. In the serum thus obtained, the content of cholesterol and triglycerides is determined with the aid of modified commercially available enzyme tests (cholesterol enzymatic 14366 Merck, triglycerides 14364 Merck). Serum is suitably diluted using physiological saline solution.
(§2) 100 μl of serum dilution are mixed with 100 μl of […] in 96-well plates and incubated at room temperature for 10 minutes. The optical density is then determined at a wavelength of 492 nm using an automatic plate-reading apparatus (SLT Spectra). The triglyceride/cholesterol concentration contained in the samples is determined with the aid of a standard curve measured in parallel.
The determination of the content of HDL cholesterol is carried out after precipitation of the ApoB-containing lipoproteins by means of a reagent mixture (Sigma 352-4 HDL cholesterol reagent) according to the manufacturer's instructions.
In experiments to determine the oral activity, test substance dissolved in DMSO and suspended in 0.5% Tylose is administered orally by means of stomach tube to Syrian golden hamsters from in-house breeding. The control animals receive identical volumes of solvent without test substance. […]

[2] = target: T1, cholesterol ester transfer protein (CETP) (Homo sapiens, UniProt P11597); test: CETP inhibition testing: transfer of 3H-cholesterol ester from human HD lipoproteins to biotinylated LD lipoproteins (SPA); type: biochemical; details: 3H-CE transfer HDL to biotin-LDL, 37° C., 18 h
T1 construct: CETP is obtained in partially purified form from human plasma by differential centrifugation and column chromatography; from tissue; host or cells: human plasma
T1 sequence (P11597 18-493): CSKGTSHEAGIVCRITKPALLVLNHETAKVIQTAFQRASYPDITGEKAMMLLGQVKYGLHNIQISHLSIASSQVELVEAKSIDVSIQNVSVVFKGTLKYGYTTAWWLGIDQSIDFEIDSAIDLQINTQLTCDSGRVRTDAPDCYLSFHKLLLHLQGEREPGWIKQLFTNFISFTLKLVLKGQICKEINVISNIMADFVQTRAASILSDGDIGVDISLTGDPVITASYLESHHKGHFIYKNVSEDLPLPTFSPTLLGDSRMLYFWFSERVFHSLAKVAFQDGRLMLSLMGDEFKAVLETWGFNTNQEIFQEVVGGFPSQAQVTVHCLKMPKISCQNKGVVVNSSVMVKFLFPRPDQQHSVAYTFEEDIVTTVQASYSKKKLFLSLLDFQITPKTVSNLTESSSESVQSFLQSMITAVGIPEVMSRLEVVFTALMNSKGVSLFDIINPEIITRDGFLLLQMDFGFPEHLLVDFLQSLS
Protocol: CETP is obtained in partially purified form from human plasma by differential centrifugation and column chromatography and used for the test. To this end, human plasma is adjusted to a density of 1.21 g per ml using NaBr and centrifuged at 4° C. for 18 h at 50,000 rpm. The bottom fraction (d>1.21 g/ml) is applied to a Sephadex®phenyl-sepharose 4B (Pharmacia) column, washed with 0.15M NaCl/0.001M trisHCl pH 7.4 and then eluted with dist. water. The CETP-active fractions are pooled, dialysed against 50 mM Na acetate pH 4.5 and applied to a CM-Sepharose® (Pharmacia) column. The column is then eluted using a linear gradient (0-1M NaCl). The pooled CETP fractions are dialysed against 10 mM trisHCl pH 7.4 and then further purified by chromatography on a Mono Q® column (Pharmacia).
50 ml of fresh human EDTA plasma is adjusted to a density of 1.12 using NaBr and centrifuged for 18 h at 50,000 rpm at 4° C. in a Ty 65 rotor. The upper phase is used to obtain cold LDL. The lower phase is dialysed against 3×4 l of PDB buffer (10 mM tris/HCl pH 7.4, […], 1 mM EDTA, 0.02% NaN3). 20 μl of ^3 H-cholesterol (Dupont NET-725; 1 μC/μl dissolved in ethanol) are then added per 10 ml of retentate volume and incubation is carried out at 37° C. under N2 for 72 h.
The mixture is then adjusted to the density 1.21 using NaBr and centrifuged at 20° C. at 50,000 rpm in the Ty 65 rotor for 18 h. The upper phase is recovered and the lipoprotein fractions are purified by gradient centrifugation. To this end, the isolated, labelled lipoprotein fraction is adjusted to a density of 1.26 using NaBr. Each 4 ml of this solution are covered with a layer of 4 ml of a solution of density 1.21 and 4.5 ml of a solution of density 1.063 (density solutions of PDB buffer and NaBr) in centrifuge tubes (SW 40 rotor) and then centrifuged in the SW 40 rotor for 24 h at 38,000 rpm and 20° C. The intermediate layer containing the labelled HDL lying between the densities 1.063 and 1.21 is dialyzed against 3×100 volumes of PDB buffer at 4° C.
The retentate contains radiolabelled ^3 H-CE-HDL which, adjusted to about 5×10^6 cpm per ml, is used for the test.
For testing the CETP activity, the transfer of ^3 H-cholesterol ester from human HD lipoproteins to biotinylated LD lipoproteins is measured.
The reaction is ended by addition of streptavidin-SPA® beads (Amersham) and the transferred radioactivity is determined directly in a liquid scintillation counter.
In the test mixture, 10 μl of HDL-^3 H-cholesterol ester (~50,000 cpm) are incubated at 37° C. for 18 h with 10 μl of biotin-LDL (Amersham) in 50 mM Hepes/0.15 m NaCl/0.% bovine serum albumin/0.05% NaN3 pH 7.4 with 10 μl of CETP (1 mg/ml) and 3 μl of solution of the substance to be tested (dissolved in 10% DMSO/1% RSA). 200 μl of the SPA-streptavidin bead solution (Amersham TRKQ 7005) are then added, the mixture is incubated further for 1 h with shaking and then measured in the scintillation counter. As controls, corresponding incubations with 10 μl of buffer, 10 μl of CETP at 4° C. and 10 μl of CETP at 37° C. are used. The activity transferred into the control mixtures with CETP at 37° C. is rated as 100% transfer. The substance concentration at which this transfer is reduced by half is indicated as the IC50 value.
In the following table, the IC50 values (mol/l) are indicated for CETP inhibitors: […]

CETP = test: Determination of the CETP activity ex vivo after intravenous administration; type: in vivo, Syrian golden hamsters; details: 20 mg/kg intravenous
Protocol: as §1
Determination of the CETP activity
After intravenous administration of 20 mg/kg of the compound from Example 42, an about 50% reduction of the CETP activity measured ex vivo is found over a period of at least 2 hours. […]

[3] = HDL cholesterol after intravenous administration to hamsters; type: in vivo, Syrian golden hamsters; details: 20 mg/kg intravenous; 24 hours after substance administration
Protocol: as §1, with “Clotting is concluded by incubation at 4° C. overnight, then centrifugation is carried out at 6000 g for 10 minutes.” left out, “Serum is suitably diluted using physiological saline solution.” left out
as §2, with “parallel. […]” for “parallel.”

[4] = 2×45 mg/kg per os, 24 hours after the first administration

IC50 [2] | SMILES | further results
– | OCc1c(-c2ccc(F)cc2)nc(C2CCCC2)c(C(F)c2ccc(C(F)(F)F)cc2)c1-c1ccc(F)cc1 (single isomer, unassigned) [Example 44] | increase of the level of HDL cholesterol versus control group [1, 4]: 20%; lowering of the level of the triglycerides versus control group [1, 4]: 70%
800 nM | CC(C)c1nc(-c2ccc(F)cc2)c(C(C)O)c(-c2ccc(F)cc2)c1C(F)c1ccc(C(F)(F)F)cc1 (stereo not drawn) [Example 3, 4,6-Bis-(p-fluorophenyl)-2-isopropyl-3-[(p-trifluoromethylphenyl)-(fluoro)methyl]5-(1-hydroxyethyl)pyridine] | –
70 nM | O=C(c1ccc(C(F)(F)F)cc1)c1c(C2CCCC2)nc(-c2cccc(C(F)(F)F)c2)c(CO)c1-c1ccc(F)cc1 [Example 14] | –
900 nM | CC(O)c1c(-c2ccc(F)cc2)nc(C2CCCC2)c(C(=O)c2ccc(C(F)(F)F)cc2)c1-c1ccc(F)cc1 (stereo not drawn) [Example 26] | –
500 nM | CC(C)c1nc(-c2ccc(F)cc2)c(CO)c(-c2ccc(F)cc2)c1C(F)c1ccc(C(F)(F)F)cc1 (stereo not drawn) [Example 31, 2-,4-di-(4-Fluorophenyl)-6-isopropyl-5-[4-(trifluoromethylphenyl)-fluoromethyl]-3-hydroxymethyl-pyridine] | –
300 nM | OCc1c(-c2ccc(Cl)cc2)nc(C2CCCC2)c(C(F)c2ccc(C(F)(F)F)cc2)c1-c1ccc(F)cc1 (stereo not drawn) [Example 37] | –
90 to 170 nM | OCc1c(-c2ccc(F)cc2)nc(C2CCCC2)c(C(F)c2ccc(C(F)(F)F)cc2)c1-c1ccc(F)cc1 (stereo not drawn) [Example 42] | period over which the about 50% reduction of CETP activity is found (CETP; ex vivo): at least 2 hours; reduction of the CETP activity measured ex vivo (CETP; over a period of at least 2 hours): about 50%; increase of HDL cholesterol values versus control group [3]: about 30%; increase of HDL cholesterol levels ([1]; 100 mg/kg per os, 24 hours after administration): 30%
300 nM | OCc1c(-c2ccc(F)cc2)nc(C2CCCC2)c(C(F)c2ccc(OC(F)(F)F)cc2)c1-c1ccc(F)cc1 (stereo not drawn) [Example 45] | –
400 nM | OCc1c(-c2ccc(F)cc2)nc(C2CCCCC2)c(C(F)c2ccc(C(F)(F)F)cc2)c1-c1ccc(F)cc1 (stereo not drawn) [Example 51] | –
170 nM | OCc1c(-c2ccc(F)cc2)nc(C2CCCCCC2)c(C(F)c2ccc(C(F)(F)F)cc2)c1-c1ccc(F)cc1 (stereo not drawn) [Example 53] | –
1000 nM | CC(C)c1nc(-c2ccc(F)cc2)c(CO)c(-c2cccc(Cl)c2)c1Cc1ccc(C(F)(F)F)cc1 [Example 63] | –
80 nM | OCc1c(-c2ccc(F)cc2)nc(C2CCCC2)c(C(F)c2ccc3ccccc3c2)c1-c1ccc(F)cc1 (stereo not drawn) [Example 68] | –
5000 nM | CC(C)c1nc(-c2ccc(F)cc2)c(CO)c(-c2ccc(F)cc2)c1C=Cc1cccc(C(F)(F)F)c1 [Example 83, 2,4-di-(4-Fluorophenyl)-6-isopropyl-5-[2-(3-trifluoromethylphenyl)vinyl]-3-hydroxymethyl-pyridine] | –
